Measurements reported in ChEMBL document CHEMBL1201862, “PubChem BioAssay data set” (2004).
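Five concentrations, 48 hours, 96-well plates. Abbreviation: GI50, concentration required for 50% inhibition of growth.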 Calls of active or inactive are those of the source. No stated cut-off is given here; in the data, active = GI50 up to about 1.1 µM and inactive = higher.

Tests used:
Assay in all cases: inhibition of tumour cell growth, NCI panel, 48 h
[1] = tested on: UO-31
[2] = tested on: ACHN
[3] = tested on: SK-MEL-2
[4] = tested on: SK-MEL-28
[5] = tested on: K562
[6] = tested on: NCI/ADR-RES
[7] = tested on: KM12
[8] = tested on: SNB-19
[9] = tested on: T47D
[10] = tested on: SK-MEL-5
[11] = tested on: M14
[12] = tested on: NCI-H226
[13] = tested on: BT-549
[14] = tested on: RPMI-8226
[15] = tested on: A498
[16] = tested on: CAKI-1
[17] = tested on: IGROV-1
[18] = tested on: HCC 2998
[19] = tested on: CCRF-CEM
[20] = tested on: MDA-N

| Compound | GI50 [1] | GI50 [2] | GI50 [3] | GI50 [4] | GI50 [5] | GI50 [6] | GI50 [7] | GI50 [8] | GI50 [9] | GI50 [10] | GI50 [11] | GI50 [12] | GI50 [13] | GI50 [14] | GI50 [15] | GI50 [16] | GI50 [17] | GI50 [18] | GI50 [19] | GI50 [20] |
| --- | --- | --- | --- | --- | --- | --- | --- | --- | --- | --- | --- | --- | --- | --- | --- | --- | --- | --- | --- | --- |
| CCC1c2[nH]c3ccccc3c2C[C@H]2C(=O)NC(COC(C)(C)C)C(=O)N12 (stereo partly drawn) | 38.2 µM (inactive) | 42 µM (inactive) | 32.8 µM (inactive) | 86.3 µM (inactive) | 39.4 µM (inactive) | 40.7 µM (inactive) | 27.9 µM (inactive) | 49.1 µM (inactive) | 44.9 µM (inactive) | 27.8 µM (inactive) | 30.1 µM (inactive) | > 100 µM (inactive) | 34 µM (inactive) | 32.4 µM (inactive) | 72.3 µM (inactive) | 44.9 µM (inactive) | 29.8 µM (inactive) | – | – | – |
| CC(C)(C)c1cc(C2COC(=O)COCCOCC(=O)OCCOCCO2)cc(C(C)(C)C)c1O (stereo not drawn) | 15.6 µM (inactive) | 20.7 µM (inactive) | > 100 µM (inactive) | 37.2 µM (inactive) | > 100 µM (inactive) | > 100 µM (inactive) | > 100 µM (inactive) | > 100 µM (inactive) | 29.2 µM (inactive) | > 100 µM (inactive) | 42.1 µM (inactive) | > 100 µM (inactive) | > 51.1 µM (inactive) | > 100 µM (inactive) | > 80.5 µM (inactive) | 18 µM (inactive) | 72.8 µM (inactive) | 23 µM (inactive) | > 100 µM (inactive) | – |
| CC(C)C(=O)[C@@]1(C)SC[C@H]2CCN=C21 | 58.6 µM (inactive) | > 100 µM (inactive) | – | > 100 µM (inactive) | > 100 µM (inactive) | > 100 µM (inactive) | > 100 µM (inactive) | > 100 µM (inactive) | – | > 100 µM (inactive) | 71 µM (inactive) | > 100 µM (inactive) | > 100 µM (inactive) | > 100 µM (inactive) | 34.4 µM (inactive) | 17 µM (inactive) | > 100 µM (inactive) | > 100 µM (inactive) | > 100 µM (inactive) | 34.8 µM (inactive) |
| Cc1ccc([S+]([O-])c2cccs2)cc1 (stereo not drawn) | > 100 µM (inactive) | > 100 µM (inactive) | – | > 100 µM (inactive) | > 100 µM (inactive) | > 100 µM (inactive) | > 100 µM (inactive) | > 100 µM (inactive) | > 100 µM (inactive) | – | > 100 µM (inactive) | > 100 µM (inactive) | > 100 µM (inactive) | > 100 µM (inactive) | 38.1 µM (inactive) | – | – | – | > 100 µM (inactive) | > 100 µM (inactive) |
| Cc1nc2ccccc2c(=O)n1/N=C(\N=N\c1cc(Cl)ccc1Cl)c1ccccc1 | 22.9 µM (inactive) | > 84.9 µM (inactive) | 60.5 µM (inactive) | 47.2 µM (inactive) | > 100 µM (inactive) | 26.6 µM (inactive) | 10.3 µM (inactive) | 29 µM (inactive) | > 100 µM (inactive) | 36.2 µM (inactive) | 54.7 µM (inactive) | 43.1 µM (inactive) | 38.6 µM (inactive) | 41.4 µM (inactive) | > 94.2 µM (inactive) | > 57.3 µM (inactive) | 44.6 µM (inactive) | 32.1 µM (inactive) | 48.6 µM (inactive) | – |
| N[C@H]1CCc2c1nc1c(c2-c2ccccc2)CC[C@@H]1N | – | 40.1 µM (inactive) | 18.5 µM (inactive) | – | 12.3 µM (inactive) | 46.9 µM (inactive) | 28.9 µM (inactive) | 82.8 µM (inactive) | – | 15.9 µM (inactive) | 16.3 µM (inactive) | 33.6 µM (inactive) | 12.4 µM (inactive) | 34.4 µM (inactive) | – | 14.8 µM (inactive) | 14.7 µM (inactive) | 21.4 µM (inactive) | 17.6 µM (inactive) | – |
| CCOC(=O)c1cc(-c2ccc(OC)cc2)c([N+](=O)[O-])[nH]1 | > 10 µM (inactive) | > 10 µM (inactive) | > 10 µM (inactive) | > 10 µM (inactive) | 1.95 µM (inactive) | – | > 10 µM (inactive) | > 10 µM (inactive) | – | 7.67 µM (inactive) | > 10 µM (inactive) | > 9.08 µM (inactive) | > 10 µM (inactive) | – | > 10 µM (inactive) | > 10 µM (inactive) | > 10 µM (inactive) | > 10 µM (inactive) | > 10 µM (inactive) | > 2.46 µM (inactive) |
| CC(C)=CCC\C(C)=C/C=C/C(C)=C\C=C\C(C)=C/C=C/C=C(C)\C=C\C=C(C)/C=C/C=C(/C)CCC=C(C)C | > 100 µM (inactive) | > 100 µM (inactive) | > 100 µM (inactive) | > 100 µM (inactive) | > 100 µM (inactive) | > 100 µM (inactive) | > 100 µM (inactive) | > 100 µM (inactive) | – | > 100 µM (inactive) | > 100 µM (inactive) | > 100 µM (inactive) | > 100 µM (inactive) | – | > 100 µM (inactive) | > 100 µM (inactive) | > 100 µM (inactive) | > 100 µM (inactive) | > 100 µM (inactive) | > 100 µM (inactive) |
| O=c1[nH]ncc2[nH]c3c4ccccc4ccc3c12 | 25.5 µM (inactive) | 27.9 µM (inactive) | – | – | 45.7 µM (inactive) | > 100 µM (inactive) | 37.4 µM (inactive) | – | 52.8 µM (inactive) | 28.1 µM (inactive) | 94.6 µM (inactive) | – | 93.8 µM (inactive) | 38.5 µM (inactive) | – | 48.2 µM (inactive) | – | 60.1 µM (inactive) | 46.3 µM (inactive) | 26.4 µM (inactive) |
| CC1(C)C2CCC1(C)C(NC(=O)COCCOCC(N)=O)C2 (stereo not drawn) | > 100 µM (inactive) | > 100 µM (inactive) | – | > 100 µM (inactive) | 32.1 µM (inactive) | – | > 100 µM (inactive) | > 100 µM (inactive) | > 100 µM (inactive) | > 100 µM (inactive) | > 100 µM (inactive) | > 100 µM (inactive) | > 100 µM (inactive) | – | > 100 µM (inactive) | > 100 µM (inactive) | > 100 µM (inactive) | 45 µM (inactive) | > 100 µM (inactive) | > 100 µM (inactive) |
| Cc1ccc(S(=O)(=O)NC(=O)NCC(N)=O)cc1 | > 100 µM (inactive) | > 100 µM (inactive) | > 100 µM (inactive) | > 100 µM (inactive) | > 100 µM (inactive) | > 100 µM (inactive) | > 100 µM (inactive) | > 100 µM (inactive) | > 100 µM (inactive) | > 100 µM (inactive) | > 100 µM (inactive) | – | > 100 µM (inactive) | > 100 µM (inactive) | – | – | > 100 µM (inactive) | – | > 100 µM (inactive) | > 100 µM (inactive) |
| C=C1C[C@]23CC[C@@H]4C(CO)(CO)CC(=O)C[C@]4(C)[C@@H]2C(O)C[C@H]1C3 (stereo partly drawn) | > 100 µM (inactive) | > 100 µM (inactive) | > 100 µM (inactive) | > 100 µM (inactive) | > 100 µM (inactive) | > 100 µM (inactive) | > 100 µM (inactive) | > 100 µM (inactive) | – | – | > 100 µM (inactive) | > 100 µM (inactive) | > 100 µM (inactive) | > 100 µM (inactive) | – | > 100 µM (inactive) | > 100 µM (inactive) | > 100 µM (inactive) | > 100 µM (inactive) | > 100 µM (inactive) |
| O=S(=O)(O)c1ccc(/N=N\c2c(O)ccc3cc(Br)ccc23)cc1 | > 100 µM (inactive) | > 100 µM (inactive) | > 100 µM (inactive) | > 100 µM (inactive) | > 10 µM (inactive) | > 100 µM (inactive) | > 100 µM (inactive) | > 100 µM (inactive) | > 100 µM (inactive) | > 100 µM (inactive) | > 100 µM (inactive) | – | > 100 µM (inactive) | > 100 µM (inactive) | > 100 µM (inactive) | > 100 µM (inactive) | > 100 µM (inactive) | – | > 100 µM (inactive) | > 100 µM (inactive) |
| CC(=O)O[C@H]1C(=O)[C@@]2(C)C(C(OC(=O)c3ccccc3)[C@]3(O)CC(OC(=O)C(O)C(NC(=O)c4ccccc4)c4cccc(Cl)c4)C(C)=C1C3(C)C)[C@]1(OC(C)=O)CO[C@@H]1C[C@@H]2O (stereo partly drawn) | – | > 10 µM (inactive) | 3.39 µM (inactive) | – | 4.94 µM (inactive) | > 10 µM (inactive) | 3.72 µM (inactive) | > 10 µM (inactive) | 8.15 µM (inactive) | 5.94 µM (inactive) | > 10 µM (inactive) | > 10 µM (inactive) | > 10 µM (inactive) | 2.21 µM (inactive) | – | > 10 µM (inactive) | 3.88 µM (inactive) | 4.67 µM (inactive) | 2.62 µM (inactive) | 0.984 µM (active) |
| O=C(Oc1cccc(Cl)c1)c1cc2cc(CCl)ccc2oc1=O | 32.8 µM (inactive) | 17.6 µM (inactive) | 12.6 µM (inactive) | 40 µM (inactive) | 41.4 µM (inactive) | > 100 µM (inactive) | 28.6 µM (inactive) | 36.8 µM (inactive) | 31.5 µM (inactive) | 16.9 µM (inactive) | 14.6 µM (inactive) | 37.8 µM (inactive) | > 100 µM (inactive) | 61.7 µM (inactive) | – | 60.7 µM (inactive) | 39.2 µM (inactive) | 16 µM (inactive) | – | 24.5 µM (inactive) |
| O=C(c1cccs1)N1CCCN(C(=O)c2cccs2)C1=S | > 100 µM (inactive) | > 100 µM (inactive) | 84.7 µM (inactive) | > 100 µM (inactive) | > 100 µM (inactive) | > 100 µM (inactive) | > 100 µM (inactive) | > 100 µM (inactive) | > 100 µM (inactive) | > 100 µM (inactive) | > 100 µM (inactive) | > 100 µM (inactive) | > 100 µM (inactive) | > 100 µM (inactive) | > 100 µM (inactive) | > 100 µM (inactive) | > 100 µM (inactive) | – | > 100 µM (inactive) | – |
